{"source": "patent US8030354B2", "about": "“Substituted biphenyl GPR40 modulators” (Amgen Inc., priority 2007, dated 2011)", "key": {"GPR40 [1]": {"target": "T1, GPR40 (Homo sapiens, UniProt O14842)", "T1 sequence (O14842 whole entry)": "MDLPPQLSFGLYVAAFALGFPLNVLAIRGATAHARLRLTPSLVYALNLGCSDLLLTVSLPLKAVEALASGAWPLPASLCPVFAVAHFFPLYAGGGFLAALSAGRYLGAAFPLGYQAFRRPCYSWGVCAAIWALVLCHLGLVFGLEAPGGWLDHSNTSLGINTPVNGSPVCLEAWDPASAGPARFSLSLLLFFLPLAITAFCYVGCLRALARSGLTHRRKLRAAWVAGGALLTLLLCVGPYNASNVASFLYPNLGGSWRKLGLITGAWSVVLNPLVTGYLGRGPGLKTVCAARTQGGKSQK", "experiment": "Inositol phosphate accumulation assay (A9_GPR40 cells)", "assay_type": "cell-based", "parameters": "expressed in transfected cells; host or cells: CHO cells stably transfected with GPR40 and aequorin", "settings": "inositol phosphate assay, A9_GPR40 cells, 1 hour; read-out: IP3 EC50", "in_short": "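[^3H] inositol phosphate accumulation was measured by SPA after 1 h compound exposure at 37° C in HBSS/10 mM LiCl containing HSA, ending with a 20 mM formic acid quench. The GPR40-transfected A9 cells had first been labelled overnight (16 h) with 1 μCi/mL ^3H-inositol.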"}, "GPR40 [2]": {"target": "T1, GPR40", "experiment": "Cell-based aequorin assay (CHO cells stably expressing GPR40 and aequorin)", "parameters": "expressed in transfected cells; host or cells: CHO cells stably transfected with GPR40 and aequorin", "settings": "activation of human GPR40, CHO cells, 0.01% HSA", "in_short": "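CHO cells stably co-expressing GPR40 and aequorin, loaded with coelenterazine (1 ug/mL, 2 h, room temperature) in H/HBSS with 20 mM Hepes and 0.01% fatty acid-free HSA. Serially diluted compounds added; luminescence recorded over 20 s. EC50 from dose-response of maximum relative light units.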"}}}
{"smiles": "COc1cccc(-c2ccc(COc3cccc(C(CC(=O)O)C4CC4)c3)cc2C2CCCCCC2)c1", "note": "(single isomer, unassigned) [Example 66.9, (3S)-3-(3-(((2-Cycloheptyl-3′-(methyloxy)-1,1′-biphenyl-4-yl)methyl)oxy)phenyl)-3-cyclopropylpropanoic acid or (3R)-3-(3-(((2-cycloheptyl-3′-(methyloxy)-1,1′-biphenyl-4-yl)methyl)oxy)phenyl)-3-cyclopropylpropanoic acid]", "values": [{"measurement": "EC50", "setting": "GPR40 [1]", "result": "10 to 100", "unit": "nM"}, {"measurement": "EC50", "setting": "GPR40 [2]", "result": "100 to 1000", "unit": "nM"}]}
{"smiles": "COc1ccc(F)c(-c2ccc(COc3cccc(C(CC(=O)O)C4CC4)c3)cc2C2=CCCCC2(C)C)c1", "note": "(single isomer, unassigned) [Example 66.10, (3S)-3-Cyclopropyl-3-(3-(((2-(6,6-dimethyl-1-cyclohexen-1-yl)-2′-fluoro-5′-(methyloxy)-1,1′-biphenyl-4-yl)methyl)oxy)phenyl)propanoic acid or (3R)-3-cyclopropyl-3-(3-(((2-(6,6-dimethyl-1-cyclohexen-1-yl)-2′-fluoro-5′-(methyloxy)-1,1′-biphenyl-4-yl)methyl)oxy)phenyl)propanoic acid]", "values": [{"measurement": "EC50", "setting": "GPR40 [1]", "result": "< 10", "unit": "nM"}, {"measurement": "EC50", "setting": "GPR40 [2]", "result": "100 to 1000", "unit": "nM"}]}
{"smiles": "CC1(C)CCC[C@@H]1c1cc(COc2cccc([C@@H](CC(=O)O)C3CC3)c2)ccc1-c1cccc(OC(F)F)c1", "note": "(single isomer, unassigned) [Example 66.11]", "values": [{"measurement": "EC50", "setting": "GPR40 [1]", "result": "10 to 100", "unit": "nM"}, {"measurement": "EC50", "setting": "GPR40 [2]", "result": "100 to 1000", "unit": "nM"}]}
{"smiles": "COc1cc(-c2ccc(COc3cccc([C@@H](CC(=O)O)C4CC4)c3)cc2C2=CCCC2(C)C)c(F)cn1", "note": "(single isomer, unassigned) [Example 66.12, (3S)-3-(3-(3-(5,5-Dimethylcyclopent-1-enyl)-4-(5-fluoro-2-methoxypyridin-4-yl)benzyloxy)phenyl)-3-cyclopropylpropanoic acid or (3R)-3-(3-(3-(5,5-dimethylcyclopent-1-enyl)-4-(5-fluoro-2-methoxypyridin-4-yl)benzyloxy)phenyl)-3-cyclopropylpropanoic acid]", "values": [{"measurement": "EC50", "setting": "GPR40 [1]", "result": "10 to 100", "unit": "nM"}, {"measurement": "EC50", "setting": "GPR40 [2]", "result": "100 to 1000", "unit": "nM"}]}
{"smiles": "COc1ccc(F)c(-c2ccc(COc3cccc([C@@H](CC(=O)O)C4CC4)c3)cc2[C@@H](OC)C(C)(C)C)c1", "note": "(single isomer, unassigned) [Example 66.13]", "values": [{"measurement": "EC50", "setting": "GPR40 [1]", "result": "< 10", "unit": "nM"}, {"measurement": "EC50", "setting": "GPR40 [2]", "result": "100 to 1000", "unit": "nM"}]}
{"smiles": "COc1ccc(F)c(-c2ccc(COc3cccc(C(CC(=O)O)C4CC4)c3)cc2C(C)C(C)(C)C)c1", "note": "(single isomer, unassigned) [Example 66.19]", "values": [{"measurement": "EC50", "setting": "GPR40 [1]", "result": "< 10", "unit": "nM"}, {"measurement": "EC50", "setting": "GPR40 [2]", "result": "10 to 100", "unit": "nM"}]}
{"smiles": "COc1ccc(F)c(-c2ccc(COc3cccc([C@@H](CC(=O)O)C4CC4)c3)cc2CC(C)C)c1", "note": "(single isomer, unassigned) [Example 66.20, (3S)-3-Cyclopropyl-3-(3-(((2′-fluoro-5′-(methyloxy)-2-(2-methylpropyl)-1,1′-biphenyl-4-yl)methyl)oxy)phenyl)propanoic acid or (3R)-3-cyclopropyl-3-(3-(((2′-fluoro-5′-(methyloxy)-2-(2-methylpropyl)-1,1′-biphenyl-4-yl)methyl)oxy)phenyl)propanoic acid]", "values": [{"measurement": "EC50", "setting": "GPR40 [1]", "result": "10 to 100", "unit": "nM"}, {"measurement": "EC50", "setting": "GPR40 [2]", "result": "100 to 1000", "unit": "nM"}]}
{"smiles": "COc1ccc(F)c(-c2ccc(COc3cccc([C@@H](CC(=O)O)C4CC4)c3)cc2[C@@H]2CCCCC2(C)C)c1", "note": "(single isomer, unassigned) [Example 66.22]", "values": [{"measurement": "EC50", "setting": "GPR40 [1]", "result": "< 10", "unit": "nM"}, {"measurement": "EC50", "setting": "GPR40 [2]", "result": "10 to 100", "unit": "nM"}]}
{"smiles": "COc1ccc(F)c(-c2ccc(COc3cccc([C@@H](CC(=O)O)C4CC4)c3)cc2[C@H](OC)C(C)(C)C)c1", "note": "(single isomer, unassigned) [Example 66.24]", "values": [{"measurement": "EC50", "setting": "GPR40 [1]", "result": "100 to 1000", "unit": "nM"}, {"measurement": "EC50", "setting": "GPR40 [2]", "result": "1000 to 10000", "unit": "nM"}]}
{"smiles": "CCOc1ccc(F)c(-c2ccc(COc3cccc([C@@H](CC(=O)O)C4CC4)c3)cc2[C@@H]2CCCC2(C)C)c1", "note": "(single isomer, unassigned) [Example 66.25]", "values": [{"measurement": "EC50", "setting": "GPR40 [1]", "result": "1000 to 10000", "unit": "nM"}, {"measurement": "EC50", "setting": "GPR40 [2]", "result": "1000 to 10000", "unit": "nM"}]}
{"smiles": "CCOc1ccc(F)c(-c2ccc(COc3cccc(C(CC(=O)O)C4CC4)c3)cc2C2CCCC2(C)C)c1", "note": "(single isomer, unassigned) [Example 66.26]", "values": [{"measurement": "EC50", "setting": "GPR40 [1]", "result": "10 to 100", "unit": "nM"}, {"measurement": "EC50", "setting": "GPR40 [2]", "result": "100 to 1000", "unit": "nM"}]}
{"smiles": "COc1ccc(F)c(-c2ccc(COc3cccc([C@@H](CC(=O)O)C4CC4)c3)cc2[C@@H](OCc2ccccc2)C(C)(C)C)c1", "note": "(single isomer, unassigned) [Example 66.28]", "values": [{"measurement": "EC50", "setting": "GPR40 [1]", "result": "< 10", "unit": "nM"}, {"measurement": "EC50", "setting": "GPR40 [2]", "result": "100 to 1000", "unit": "nM"}]}
{"smiles": "COc1ccc(F)c(-c2ccc(COc3cccc([C@@H](CC(=O)O)C4CC4)c3)cc2[C@H](F)C(C)(C)C)c1", "note": "(single isomer, unassigned) [Example 66.31]", "values": [{"measurement": "EC50", "setting": "GPR40 [1]", "result": "10 to 100", "unit": "nM"}, {"measurement": "EC50", "setting": "GPR40 [2]", "result": "100 to 1000", "unit": "nM"}]}
{"smiles": "COC(c1cc(COc2cccc(C(CC(=O)O)C3CC3)c2)ccc1-c1ccccc1F)C(C)(C)C", "note": "(single isomer, unassigned) [Example 66.33]", "values": [{"measurement": "EC50", "setting": "GPR40 [1]", "result": "10 to 100", "unit": "nM"}, {"measurement": "EC50", "setting": "GPR40 [2]", "result": "100 to 1000", "unit": "nM"}]}
{"smiles": "COc1cc(-c2ccc(COc3cccc(C(CC(=O)O)C4CC4)c3)cc2C2=CCCCC2(C)C)c(F)cn1", "note": "(single isomer, unassigned) [Example 66.34, (3S)-3-Cyclopropyl-3-(3-(((3-(6,6-dimethyl-1-cyclohexen-1-yl)-4-(5-fluoro-2-(methyloxy)-4-pyridinyl)phenyl)methyl)oxy)phenyl)propanoic acid or (3S)-3-Cyclopropyl-3-(3-(((3-(6,6-dimethyl-1-cyclohexen-1-yl)-4-(5-fluoro-2-(methyloxy)-4-pyridinyl)phenyl)methyl)oxy)phenyl)propanoic acid]", "values": [{"measurement": "EC50", "setting": "GPR40 [1]", "result": "10 to 100", "unit": "nM"}, {"measurement": "EC50", "setting": "GPR40 [2]", "result": "10 to 100", "unit": "nM"}]}
{"smiles": "COc1cc(-c2ccc(COc3cccc(C(CC(=O)O)C4CC4)c3)cc2C2CCCC2(C)C)c(F)cn1", "note": "(single isomer, unassigned) [Example 66.36]", "values": [{"measurement": "EC50", "setting": "GPR40 [1]", "result": "< 10", "unit": "nM"}, {"measurement": "EC50", "setting": "GPR40 [2]", "result": "10 to 100", "unit": "nM"}]}
{"smiles": "COc1cc(-c2ccc(COc3cccc([C@@H](CC(=O)O)C4CC4)c3)cc2[C@@H]2CCCC2(C)C)c(F)cn1", "note": "(single isomer, unassigned) [Example 66.37]", "values": [{"measurement": "EC50", "setting": "GPR40 [1]", "result": "10 to 100", "unit": "nM"}, {"measurement": "EC50", "setting": "GPR40 [2]", "result": "100 to 1000", "unit": "nM"}]}
{"smiles": "COc1ccc(F)c(-c2ccc(COc3cccc([C@@H](CC(=O)O)C4CC4)c3)cc2C2N(C)CCCC2(C)C)c1", "note": "(single isomer, unassigned) [Example 66.40, (S)-3-Cyclopropyl-3-{3-[2′-fluoro-5′-methoxy-2-(1,3,3-trimethyl-piperidin-2-yl)-biphenyl-4-ylmethoxy]-phenyl}-propionic acid or (R)-3-cyclopropyl-3-{3-[2′-fluoro-5′-methoxy-2-(1,3,3-trimethyl-piperidin-2-yl)-biphenyl-4-ylmethoxy]-phenyl}-propionic acid]", "values": [{"measurement": "EC50", "setting": "GPR40 [1]", "result": "10 to 100", "unit": "nM"}, {"measurement": "EC50", "setting": "GPR40 [2]", "result": "100 to 1000", "unit": "nM"}]}
{"smiles": "COCC(C)(C)C(OC)c1cc(COc2cccc(C(CC(=O)O)C3CC3)c2)ccc1-c1cc(OC)ccc1F", "note": "(single isomer, unassigned) [Example 66.42, (S)-3-Cyclopropyl-3-{3-[2-(1,3-dimethoxy-2,2-dimethyl-propyl)-2′-fluoro-5′-methoxy-biphenyl-4-ylmethoxy]-phenyl}-propionic acid or (S)-3-Cyclopropyl-3-{3-[2-(1,3-dimethoxy-2,2-dimethyl-propyl)-2′-fluoro-5′-methoxy-biphenyl-4-ylmethoxy]-phenyl}-propionic acid]", "values": [{"measurement": "EC50", "setting": "GPR40 [1]", "result": "10 to 100", "unit": "nM"}, {"measurement": "EC50", "setting": "GPR40 [2]", "result": "100 to 1000", "unit": "nM"}]}
